The values below come from patent publication US9828379B2 (priority 2013, dated 2017).

A word on the IC50: it is the concentration needed to halve the response being measured. Usually inhibition stands for the drop in the measured response relative to a control, in per cent.

Test [1] addresses T1, ABHD6 (Mus musculus, UniProt Q8R2Y0).
T1 sequence (Q8R2Y0 1-336): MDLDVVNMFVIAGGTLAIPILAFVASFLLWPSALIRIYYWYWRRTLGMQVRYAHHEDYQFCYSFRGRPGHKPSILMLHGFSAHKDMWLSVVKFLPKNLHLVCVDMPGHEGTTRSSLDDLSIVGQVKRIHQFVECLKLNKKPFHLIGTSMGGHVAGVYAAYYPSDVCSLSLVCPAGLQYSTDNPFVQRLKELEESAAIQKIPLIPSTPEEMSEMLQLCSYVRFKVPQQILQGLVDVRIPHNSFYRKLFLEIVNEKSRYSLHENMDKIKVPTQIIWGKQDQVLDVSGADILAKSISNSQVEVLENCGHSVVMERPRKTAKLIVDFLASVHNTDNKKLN
In words: biochemical. The settings on record: in vitro competitive ABPP.

Test [2] has as its target T2, FAAH (Mus musculus, UniProt O08914).
T2 sequence (O08914 1-579): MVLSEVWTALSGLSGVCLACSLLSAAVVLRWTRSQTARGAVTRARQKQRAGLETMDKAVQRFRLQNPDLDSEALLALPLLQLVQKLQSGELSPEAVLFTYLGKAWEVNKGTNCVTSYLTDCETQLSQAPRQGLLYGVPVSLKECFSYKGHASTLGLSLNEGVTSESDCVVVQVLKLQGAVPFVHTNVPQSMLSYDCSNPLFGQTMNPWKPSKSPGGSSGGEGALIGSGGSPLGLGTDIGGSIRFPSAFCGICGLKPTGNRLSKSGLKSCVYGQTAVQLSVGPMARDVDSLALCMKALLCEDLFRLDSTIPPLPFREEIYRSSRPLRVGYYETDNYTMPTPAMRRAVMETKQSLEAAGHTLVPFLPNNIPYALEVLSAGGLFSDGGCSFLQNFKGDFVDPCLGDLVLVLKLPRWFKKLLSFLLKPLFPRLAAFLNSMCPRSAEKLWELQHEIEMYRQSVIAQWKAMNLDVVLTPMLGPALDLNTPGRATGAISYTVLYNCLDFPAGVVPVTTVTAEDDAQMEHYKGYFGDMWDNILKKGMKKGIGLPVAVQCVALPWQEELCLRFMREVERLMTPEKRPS
Description: biochemical. The note with it: in vitro competitive ABPP.

Test [3] deals with T3, MAGL (Mus musculus, UniProt O35678).
T3 sequence (O35678 1-303): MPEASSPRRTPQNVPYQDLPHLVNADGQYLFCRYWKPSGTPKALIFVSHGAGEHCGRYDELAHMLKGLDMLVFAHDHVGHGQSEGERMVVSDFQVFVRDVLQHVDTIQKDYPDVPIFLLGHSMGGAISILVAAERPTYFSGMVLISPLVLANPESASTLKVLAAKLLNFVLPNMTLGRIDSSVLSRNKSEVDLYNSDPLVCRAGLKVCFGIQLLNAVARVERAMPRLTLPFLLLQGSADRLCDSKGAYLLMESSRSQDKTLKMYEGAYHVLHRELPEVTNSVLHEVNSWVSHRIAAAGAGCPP
In words: biochemical. The note with it: mouse; in vitro competitive ABPP; read-out: Mouse (IC50 value, nM) MAGL.

For test [4], the target named is T1, ABHD6. Description: In vitro competitive activity-based protein profiling (Table 2, % inhibition at 1 μM). The settings on record: read-out: % Inhibition at 1 μM ABHD6. The class given is biochemical.
The target in test [5] is T2, FAAH. The test is described as above. The class given is biochemical. The settings on record: read-out: % Inhibition at 1 μM FAAH.
Test [6] addresses T4, Mouse brain MAGL (Mus musculus, UniProt O35678).
T4 construct: from tissue; host or cells: brain of wild-type C57Bl/6J mice dosed by oral gavage
T4 sequence (O35678 1-303): T3 sequence (O35678 1-303)
Description: Mouse brain proteomes from inhibitor treated mice (oral gavage, ABPP analysis). The class given is in vivo. The settings on record: p.o., sacrificed 4 h following administration.

Test [7] concerns the target T3, MAGL. Description: In vitro competitive activity-based protein profiling (Table 2, % inhibition at 1 μM). The class given is biochemical. The note with it: read-out: % Inhibition at 1 μM MAGL. The procedure: After 30 min, FP—Rh (1.0 μL, 50 μM in DMSO) was added and the mixture was incubated for another 30 min at 37° C. Reactions were quenched with SDS loading buffer (50 μL-4×) and run on SDS-PAGE.
Cell lysates were diluted with mock proteomes for use in competitive ABPP experiments.

For the compound `O=C(OC(C(F)(F)F)C(F)(F)F)N1CC2CN(Cc3cccc(Cl)c3N3CCC4(CCOCC4)C3)CC2C1` (centres unmarked) [Example 172, 1,1,1,3,3,3-hexafluoropropan-2-yl 5-[(3-chloro-2-[8-oxa-2-azaspiro[4.5]decan-2-yl]phenyl)methyl]-octahydropyrrolo[3,4-c]pyrrole-2-carboxylate], the concentration for half-maximal inhibition (IC50) in test [1] is 1000 to 10000 nM; in test [2] it was over 10000 nM; in test [3], under 100 nM. For the same compound, the results for the inhibition at 1 µM in test [4], in test [5] and in test [7] were under 25%, under 25% and over 75%, respectively. The inhibition at 5 mg/kg in test [6] is at most 25%.
In the case of `CCn1cc(CN2CC3CN(C(=O)OC(C(F)(F)F)C(F)(F)F)CC3C2)c(-c2cccc(N3CCCC3)c2)n1` (centres unmarked) [Example 64, 1,1,1,3,3,3-Hexafluoropropan-2-yl 5-([1-ethyl-3-[3-(pyrrolidin-1-yl)phenyl]-1H-pyrazol-4-yl]methyl)-octahydropyrrolo[3,4-c]pyrrole-2-carboxylate], the figures for the IC50 in test [1], in test [2] and in test [3] were 1000 to 10000 nM, 1000 to 10000 nM and under 100 nM, respectively. Besides, the inhibition at 1 µM in test [4] was under 25%; in test [5] it was under 25%; in test [7], over 75%. In test [6], this compound had an inhibition at 5 mg/kg of 25 to 75%.
As to `CCn1cc(CN2CC3CN(C(=O)OC(C(F)(F)F)C(F)(F)F)CC3C2)c(C(=O)NCc2ccccc2)n1` (centres unmarked) [Example 78, 1,1,1,3,3,3-Hexafluoropropan-2-yl 5-((3-(benzylcarbamoyl)-1-ethyl-1H-pyrazol-4-yl)methyl)hexahydropyrrolo[3,4-c]pyrrole-2(1H)-carboxylate], the half-inhibitory concentration (IC50) in test [1] was 1000 to 10000 nM; in test [2], over 10000 nM; in test [3], under 100 nM. Further, the values for the inhibition at 1 µM in test [4], in test [5] and in test [7] were 25 to 75%, under 25% and over 75%, respectively. The compound further had an inhibition at 5 mg/kg in test [6] of 25 to 75%.
As to `CC(C)(C)c1cc(CN2CC3CN(C(=O)OC(C(F)(F)F)C(F)(F)F)CC3C2)n(-c2ccccc2Cl)n1` (centres unmarked) [Example 170, 1,1,1,3,3,3-hexafluoropropan-2-yl 5-[[3-tert-butyl-1-(2-chlorophenyl)-1H-pyrazol-5-yl]methyl]-octahydropyrrolo[3,4-c]pyrrole-2-carboxylate], the IC50 in test [1] is 1000 to 10000 nM; in test [2] it was over 10000 nM; in test [3], under 100 nM. Moreover, the inhibition at 1 µM is 25 to 75% in test [4], under 25% in test [5] and over 75% in test [7]. Besides, in test [6], the inhibition at 5 mg/kg is 25 to 75%.
Turning to `O=C(OC(C(F)(F)F)C(F)(F)F)N1CC2CN(Cc3cccc(Cl)c3N3CC[C@H](CF)C3)CC2C1` (stereo partly drawn) [Example 173, 1,1,1,3,3,3-hexafluoropropan-2-yl 5-([3-chloro-2-[(3S)-3-(fluoromethyl)pyrrolidin-1-yl]phenyl]methyl)-octahydropyrrolo[3,4-c]pyrrole-2-carboxylate], the concentration for half-maximal inhibition (IC50) in test [1] was over 10000 nM; in test [2], 1000 to 10000 nM; in test [3], under 100 nM. Also, the inhibition at 1 µM was 25 to 75% in test [4], under 25% in test [5] and over 75% in test [7]. The compound also returned an inhibition at 5 mg/kg in test [6] of 25 to 75%.
For the compound `O=C(OC(C(F)(F)F)C(F)(F)F)N1CC2CN(Cc3ccc(Cl)cc3N3CC4CCC(C3)O4)CC2C1` (centres unmarked) [Example 3, 1,1,1,3,3,3-Hexafluoropropan-2-yl 5-(2-(8-oxa-3-azabicyclo[3.2.1]octan-3-yl)-4-chlorobenzyl)hexahydropyrrolo[3,4-c]pyrrole-2(1H)-carboxylate], the results for the IC50 in test [1], in test [2] and in test [3] were 1000 to 10000 nM, 1000 to 10000 nM and under 100 nM, respectively. Besides, the inhibition at 1 µM in test [4] is 25 to 75%; in test [5] it was 25 to 75%; in test [7], over 75%. In addition, the inhibition at 5 mg/kg in test [6] is at most 25%.
In the case of `CCn1cc(CN2CC3CN(C(=O)OC(C(F)(F)F)C(F)(F)F)CC3C2)c(-c2ccc(N3CCCC3)cc2)n1` (centres unmarked) [Example 67, 1,1,1,3,3,3-Hexafluoropropan-2-yl 5-([1-ethyl-3-[4-(pyrrolidin-1-yl)phenyl]-1H-pyrazol-4-yl]methyl)-octahydropyrrolo[3,4-c]pyrrole-2-carboxylate], the half-inhibitory concentration (IC50) in test [1] was 1000 to 10000 nM; in test [2], 1000 to 10000 nM; in test [3], under 100 nM. Besides, the inhibition at 1 µM in test [4] is under 25%; in test [5], under 25%; in test [7], over 75%. In test [6], this compound gave an inhibition at 5 mg/kg of 25 to 75%.
For the compound `O=C(OC(C(F)(F)F)C(F)(F)F)N1CC2CN(Cc3cccc(Cl)c3N3CCC4(CCOC4)C3)CC2C1` (centres unmarked) [Example 42, 1,1,1,3,3,3-Hexafluoropropan-2-yl 5-[(3-chloro-2-[2-oxa-7-azaspiro[4.4]nonan-7-yl]phenyl)methyl]-octahydropyrrolo[3,4-c]pyrrole-2-carboxylate], the IC50 in test [1] is 1000 to 10000 nM; in test [2], 1000 to 10000 nM; in test [3], under 100 nM. The figures for the inhibition at 1 µM in test [4], in test [5] and in test [7] were under 25%, under 25% and over 75%, respectively. In test [6], this compound showed an inhibition at 5 mg/kg of 25 to 75%.
For the compound `O=C(OC(C(F)(F)F)C(F)(F)F)N1CC2CN(Cc3ccc(Cl)cc3N3CCC(C(=O)N4CCCC4)CC3)CC2C1` (centres unmarked) [Example 37, 1,1,1,3,3,3-Hexafluoropropan-2-yl 5-[(4-chloro-2-[4-[(pyrrolidin-1-yl)carbonyl]piperidin-1-yl]phenyl)methyl]-octahydropyrrolo[3,4-c]pyrrole-2-carboxylate], the IC50 in test [1] was 1000 to 10000 nM; in test [2] it was 1000 to 10000 nM; in test [3], under 100 nM. Besides, the results for the inhibition at 1 µM in test [4], in test [5] and in test [7] were under 25%, 25 to 75% and over 75%, respectively. The same compound gave an inhibition at 5 mg/kg in test [6] of at most 25%.
As to `CCn1ncc(CN2CC3CN(C(=O)OC(C(F)(F)F)C(F)(F)F)CC3C2)c1C(=O)NC1CC1` (centres unmarked) [Example 74], the IC50 in test [1] is 100 to 1000 nM; in test [2], over 10000 nM; in test [3], under 100 nM. In addition, the inhibition at 1 µM in test [4] was 25 to 75%; in test [5], under 25%; in test [7] it was over 75%. The compound further registered an inhibition at 5 mg/kg in test [6] of 25 to 75%.
For `CCn1cc(CN2CC3CN(C(=O)OC(C(F)(F)F)C(F)(F)F)CC3C2)c(-c2ccccc2N2CCOCC2)n1` (centres unmarked) [Example 131, 1,1,1,3,3,3-hexafluoropropan-2-yl 5-([1-ethyl-3-[2-(morpholin-4-yl)phenyl]-1H-pyrazol-4-yl]methyl)-octahydropyrrolo[3,4-c]pyrrole-2-carboxylate], the IC50 in test [1] was 1000 to 10000 nM; in test [2], over 10000 nM; in test [3], under 100 nM. Besides, the inhibition at 1 µM in test [4] is under 25%; in test [5] it was under 25%; in test [7], over 75%. Besides, the inhibition at 5 mg/kg in test [6] was at least 75%.
